Results reported in US6737383B1, “Herbicidal oxadiazolidines” (priority 1999, dated 2004).

Experiments:
[1] = tested on: sugar beet; test: Test B pre/postemergence sugar beet; type: in vivo, Beta vulgaris
Method in brief: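 Herbicidal effect was estimated by eye on a ten-point control scale after plants spent twelve to sixteen days in a greenhouse following soil or foliar treatment. Foliar sprays targeted plants at one to four leaves; all doses were formulated in a non-phytotoxic solvent with surfactant.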

[2] = tested on: smallflower flatsedge; test: Test B flood test smallflower flatsedge; type: in vivo, Cyperus difformis; conditions: for Plant response rating, S. Flatsedge (0 to 10 scale, 0 is no effect, 10 is complete control) / S. Flatsedge plant response rating (0 to 10 scale, 0 is no effect, 10 is complete control): visual evaluation after twelve to sixteen days; for S. Flatsedge plant response rating (0 to 10 scale, 0 is no effect, 10 is complete control): under heading Pre-emergence
Method in brief: (§1)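 Each value is a visual injury score relative to controls, with 10 meaning complete control and 0 no effect. Evaluation took place twelve to sixteen days after the 2-leaf-stage plants were treated and kept in the greenhouse.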

[3] = tested on: duck salad; test: Test B flood test duck salad; type: in vivo, Heteranthera limosa; conditions: for Plant response rating, Ducksalad (0 to 10 scale, 0 is no effect, 10 is complete control) / Ducksalad plant response rating (0 to 10 scale, 0 is no effect, 10 is complete control): visual evaluation after twelve to sixteen days; for Ducksalad plant response rating (0 to 10 scale, 0 is no effect, 10 is complete control): under heading Pre-emergence
Method in brief: as §1

[4] = tested on: rice; test: Test B flood test rice; type: in vivo, Oryza sativa; conditions: for Plant response rating, Rice (0 to 10 scale, 0 is no effect, 10 is complete control) / Rice plant response rating (0 to 10 scale, 0 is no effect, 10 is complete control): visual evaluation after twelve to sixteen days; for Rice plant response rating (0 to 10 scale, 0 is no effect, 10 is complete control): under heading Pre-emergence
Method in brief: as §1

[5] = tested on: bamyardgrass; test: Test B flood test barnyardgrass; type: in vivo, Echinochloa crus-galli; conditions: for Plant response rating, Barnyardgrass (0 to 10 scale, 0 is no effect, 10 is complete control) / Barnyardgrass plant response rating (0 to 10 scale, 0 is no effect, 10 is complete control): visual evaluation after twelve to sixteen days; for Barnyardgrass plant response rating (0 to 10 scale, 0 is no effect, 10 is complete control): under heading Pre-emergence
Method in brief: as §1

[6] = Postemergence, Rate 125 g/ha, scale 0 to 10, 0 is no effect, 10 is complete control
[7] = Preemergence, Rate 62 g/ha, scale of 0 to 10 where 0 is no effect and 10 is complete control
[8] = Preemergence, Rate 250 g/ha, scale of 0 to 10 where 0 is no effect and 10 is complete control
[9] = Preemergence, Rate 500 g/ha, scale of 0 to 10 where 0 is no effect and 10 is complete control
[10] = Rate 62 g/ha, Postemergence, scale 0 to 10 (0 no effect, 10 complete control)
[11] = Rate 500 g/ha, Postemergence, scale 0 to 10, 0 no effect, 10 complete control
[12] = Rate 62 g/ha, headed Pre-emergence (flood test species), scale 0 to 10 (0 no effect, 10 complete control)
[13] = Rate 125 g/ha, Pre-emergence, flood test species, scale 0 to 10 where 0 is no effect and 10 is complete control
[14] = Rate 250 g/ha, Pre-emergence, flood-test species, scale 0 to 10, 0 is no effect, 10 is complete control
[15] = Rate 500 g/ha, Pre-emergence, flood test species, scale 0 to 10 (0 no effect, 10 complete control)
[16] = Postemergence, Rate 250 g/ha, scale 0 to 10, 0 is no effect, 10 is complete control
[17] = Preemergence, Rate 62 g/ha, scale 0 to 10 (0 no effect, 10 complete control)
[18] = Rate 62 g/ha, Postemergence, scale of 0 to 10 where 0 is no effect and 10 is complete control
[19] = Rate 62 g/ha, flood test species, Pre-emergence
[20] = Rate 125 g/ha, flood test species

Row | SMILES | Plant response rating, Sugarbeets [1, 6] | Sugarbeets plant response rating [1, 7] | Sugarbeets plant response rating (0 to 10 scale) ([1]; Preemergence, Rate 125 g/ha) | Sugarbeets plant response rating [1, 8] | Sugarbeets plant response rating [1, 9] | Sugarbeets plant response rating [1, 10] | Plant response rating, Sugarbeets [1, 11] | S. Flatsedge plant response rating [2, 12] | S. Flatsedge plant response rating [2, 13] | S. Flatsedge plant response rating [2, 14] | S. Flatsedge plant response rating [2, 15] | Ducksalad plant response rating [3, 12] | Ducksalad plant response rating [3, 13] | Ducksalad plant response rating [3, 14] | Ducksalad plant response rating [3, 15] | Rice plant response rating [4, 12] | Rice plant response rating [4, 14] | Rice plant response rating [4, 15] | Barnyardgrass plant response rating [5, 14] | Barnyardgrass plant response rating [5, 15] | other results
1 | Cc1ccc(N(C(=O)n2oc(=O)n(-c3ccc4ccccc4c3)c2=O)C(C)C)cc1 [Compound 334] | 0 | 0 | 0 | 0 | 0 | 0 | 0 | 0 | 0 | 0 | 0 | 0 | 0 | 0 | 0 | 0 | 0 | 0 | 0 | 0 | Rice plant response rating [4, 13]: 0; Barnyardgrass plant response rating [5, 12]: 0; Barnyardgrass plant response rating [5, 13]: 0
2 | Cc1c(-n2c(=O)on(C(=O)N(c3ccc(Cl)cc3)C(C)C)c2=O)ccc2ccccc12 [Compound 336] | 0 | 0 | 0 | 0 | 0 | 0 | 0 | 0 | 0 | 0 | 0 | 0 | 0 | 0 | 0 | 0 | 0 | 0 | 0 | 0 | Rice plant response rating [4, 13]: 0; Barnyardgrass plant response rating [5, 12]: 0; Barnyardgrass plant response rating [5, 13]: 0
3 | Cc1nsc(Cl)c1Cn1c(=O)on(C(=O)N(c2ccccc2)C(C)C)c1=O [Compound 374] | 0 |  | 0 | 0 | 4 |  | 4 |  |  | 0 | 0 |  |  | 0 | 0 |  | 0 | 0 | 0 | 0 | Plant response rating, Sugarbeets [1, 16]: 0; Plant response rating, Sugarbeets [1, 17]: 0; Sugarbeets plant response rating [1, 18]: 0; Plant response rating, S. Flatsedge (0 to 10 scale, 0 is no effect, 10 is complete control) [2, 19]: 0; S. Flatsedge plant response rating (0 to 10 scale, 0 is no effect, 10 is complete control) [2, 20]: 0; Plant response rating, Ducksalad (0 to 10 scale, 0 is no effect, 10 is complete control) [3, 19]: 0; Ducksalad plant response rating (0 to 10 scale, 0 is no effect, 10 is complete control) [3, 20]: 0; Plant response rating, Rice (0 to 10 scale, 0 is no effect, 10 is complete control) [4, 19]: 0; Rice plant response rating (0 to 10 scale, 0 is no effect, 10 is complete control) [4, 20]: 0; Plant response rating, Barnyardgrass (0 to 10 scale, 0 is no effect, 10 is complete control) [5, 19]: 0; Barnyardgrass plant response rating (0 to 10 scale, 0 is no effect, 10 is complete control) [5, 20]: 0
4 | CC(C)N(C(=O)n1oc(=O)n(CCl)c1=O)c1ccc(F)cc1 [Compound 376] | 0 |  | 0 | 0 | 0 |  | 0 |  |  | 0 | 0 |  |  | 0 | 0 |  | 0 | 0 | 0 | 0 | Plant response rating, Sugarbeets [1, 16]: 0; Plant response rating, Sugarbeets [1, 17]: 0; Sugarbeets plant response rating [1, 18]: 0; Plant response rating, S. Flatsedge (0 to 10 scale, 0 is no effect, 10 is complete control) [2, 19]: 0; S. Flatsedge plant response rating (0 to 10 scale, 0 is no effect, 10 is complete control) [2, 20]: 0; Plant response rating, Ducksalad (0 to 10 scale, 0 is no effect, 10 is complete control) [3, 19]: 0; Ducksalad plant response rating (0 to 10 scale, 0 is no effect, 10 is complete control) [3, 20]: 0; Plant response rating, Rice (0 to 10 scale, 0 is no effect, 10 is complete control) [4, 19]: 0; Rice plant response rating (0 to 10 scale, 0 is no effect, 10 is complete control) [4, 20]: 0; Plant response rating, Barnyardgrass (0 to 10 scale, 0 is no effect, 10 is complete control) [5, 19]: 0; Barnyardgrass plant response rating (0 to 10 scale, 0 is no effect, 10 is complete control) [5, 20]: 0
